# Measurements published in publication PMC12251482, “Floridoside Phosphotriester Derivatives: Synthesis and Inhibition of Human Neutrophils’ Oxidative Burst” (Molecules, 2025).
# Assay: Neutrophils' apoptosis versus necrosis, Annexin V/PI flow cytometry
# Assay type: cell-based, human
# Conditions: human; 50 μM; representative plot, Figure 2; read-out: Q2-LL, viable cells (AV−/PI−)
# Experimental: The effect of the compounds under study on neutrophil viability was evaluated using flow cytometry. This assessment involved staining with Annexin V (AV) and propidium iodide (PI) from the BD Pharmingen™ FITC Annexin V Apoptosis Detection Kit, following the manufacturer’s protocol. […] Afterwards, the content of each well was transferred to a conical microtube and centrifuged at 400× g, at 20 °C, for 5 min. The neutrophils’ pellets were resuspended in PBS and centrifuged again under the previous conditions. The supernatant was removed, and the solution of Annexin V and PI from the kit was added, resuspending the pellet. The neutrophils were incubated in the dark at room temperature for 15 min and then diluted (dilution factor = 6) with the diluted binding buffer. […] In the flow cytometer, the fluorescence signal of at least 10,000 neutrophils per sample was collected in logarithmic mode and followed in channels 1 and 3. A polygon gate, corresponding to the neutrophil’s population, was drawn according to the light-scattering properties of neutrophils in a forward versus scatter plot. Thus, debris and other blood cells were unaccounted for in the samples. The green fluorescence corresponding to Annexin V was monitored in channel 1 and plotted as a histogram of FL1 staining, whereas the fluorescence corresponding to PI was monitored in channel 3 and plotted in the same histogram as FL3 staining. Neutrophils’ cell death was expressed as a relative percentage of viable, apoptotic, late apoptotic, and necrotic cells compared to a negative control (untreated cells).
# The eﬀect of the compounds under study on neutrophil viability was evaluated using ﬂow cytometry.
# This assessment involved staining with Annexin V (AV) and propidium iodide (PI) from the BD Pharmingen™ FITC Annexin V Apoptosis Detection Kit, following the manufacturer's protocol. Neutrophils (1 x10^6 cells/mL) were incubated in a 24-well plate in the dark at 37 °C for 45 minutes with the positive control (Triton X-100, […]
# Afterwards, the content of each well was transferred to a conical microtube and centrifuged at 400g, at 20 °C, for 5 minutes. The neutrophils’ pellets were resuspended in PBS and centrifuged again under the previous conditions. The supernatant was removed, and the solution of Annexin V and PI from the kit was added, resuspending the pellet. The neutrophils were incubated in the dark at room temperature for 15 minutes and then diluted (dilution factor = 6) with the diluted binding buﬀer. The measurements were performed in a n Accuri C6 ﬂow cytometer (BD, Becton, Dickinson and Company, Franklin Lakes, NJ, USA), and the results were treated with BD Accuri™ C6 software. In the ﬂow cytometer, the ﬂuorescence signal of at least 10,000 neutrophils per sample was collected in logarithmic mode and followed in channels 1 and 3. A polygon gate, corresponding to the neutrophil’s population, was drawn according to the light-scattering properties of neutrophils in a forward vs scatter plot. Thus, debris and other blood cells were unaccounted for in the samples.
# The green ﬂuorescence corresponding to Annexin V was monitored in channel 1 and plotted as a histogram of FL1 staining, whereas the ﬂuorescence corresponding to PI was monitored in channel 3 and plotted in the same histogram as FL3 staining. Neutrophils’ cell death was expressed as a relative percentage of viable, apoptotic, late apoptotic, and necrotic cells compared to a negative control (untreated cells). […]
smiles,measurement,value
"CCCCCCCCCCCC(=O)OCC(CO)OC1OC(COP(=O)(OCCN)OCCN)C(O)C(O)C1O (stereo not shown) [Compound 1h, 2-(6-(bis(2-Aminoethoxy))phosphoryl)galactopyranosyl-3-hydroxypropyl dodecanoate]","viability at 45 min, 50 µM",53%
